Assay results reported in patent publication US11814366B2, “Antiviral compounds and use thereof” (UNIVERSITA DEGLI STUDI DI SIENA, priority 2018, dated 2023).

How the values were obtained:
HSV-1 = HSV-1 plaque reduction assay on Vero cells; type: cell-based, Herpes 1 virus (HSV-1); conditions: Human alphaherpesvirus 1, Vero
[1] = Cell viability (MTS) assay, HELF cells; type: cell-based; conditions: human, conditions of the HCMV assay
Procedure: (§1) Cell viability was measured using the MITS [3-(4,5-dimethylthiazol-2-yl)-5-(3 carboxy methoxy phenyl)-2-(4-sulfophenyl)-2H-tetrazolium] assay. Cell cultures were seeded in 96-well plates and were incubated with different concentrations of compounds of the invention in triplicate under the same experimental conditions described for the antiviral assays. Cell viability was determined using the CellTiter 96 Proliferation Assay Kit (Promega, Madison, WI, USA) according to the manufacturer's instructions. Absorbances were measured using a Microplate Reader (Model 680, BIORAD) at 490 nm. The effect on cell viability at different concentrations of the compound was expressed as a percentage, by comparing absorbances of treated cells with those of cells incubated with culture medium and equal volumes of vehicle. The 50% cytotoxic concentrations (CC50) and 95% confidence intervals (CIs) were determined using Prism software (Graph-Pad Software, San Diego, CA).

[2] = Lipoperoxidation test (TBA assay)
Procedure: To evaluate the lipid oxidation capability of 15b, a lipoperoxidation test was carried out.
The effect of 15b was evaluated toward the oxidation of linoleic acid, incorporated in DPPC liposomes, using TBA assay. The assay is based on the reactivity of malondialdehyde (MDA), a colorless end-product of degradation, with 2-thiobarbituric acid (TBA) to produce a pink adduct (TBA-MDA-TBA) that absorbs at 535 nm. […] MDA was detected spectrophotometrically according to methods described in literature (Boon-Huat Bay, Yuan-Kun Lee, Benny Kwong-Huat Tan, Eng-Ang Ling, Lipid peroxidative stress and antioxidative enzymes in brains of milk-supplemented rats, Neuroscience Letters 277 (1999) 127-130).
15b was incubated at 37° C. for 2 h with a 0.5% linoleic acid containing liposome aqueous dispersion (Cagno, V.; Tintori, C.; Civra, A.; Cavalli, R.; Tiberi, M.; Botta, L.; Brai, A.; Poli, G.; Tapparel, C.; Lembo, D.; et al. Novel Broad Spectrum Virucidal Molecules against Enveloped Viruses. 2018). […] The organic supernatant was evaluated by spectrophotometry.
The calibration curve of TBA-MDA-TBA complex was obtained using a MDA precursor 1,1,3,3-tetraethoxypropane. […] The solutions were subjected to TBA assay and analyzed at spectrophotometer. […]

H1N1 = H1N1 inhibition assay on MDCK cells; type: cell-based, Influenza virus H1N1
Procedure: MDCK cells were pre-plated in 96-well plates. The following day, concentrations of compounds ranging from 50 μM to 0.0001 μM in DMSO were mixed with H1N1 (MOI 0.05 pfu/cell) and incubated for 1 hour at 37° C. The mixtures were subsequently added to the cells for 1 h at 37° C., after a washout, cells were overlaid with MEM for 16 h at 37° C. Cells were then fixed and subjected to specific immunostaining using a Flu A monoclonal antibody (Merck 5001) in order to visualize infected cells. EC50 were calculated by comparing numbers of infected cells in treated and untreated wells. The effective concentration producing 50% reduction in plaque formation (EC50) was determined using Prism software. The selectivity index (SI) was calculated by dividing the CC50 by the EC50 value.

VSV = test: microbe, parasite or virus in culture; type: cell-based, Vesicular Stomatitis Virus (VSV); conditions: Vesicular stomatitis virus, Vero
DENV-2 = test: DENV plaque reduction assay on Huh-7 cells; type: cell-based, Dengue virus
Procedure: The effect of compounds on DENV infection was evaluated by plaque reduction assay. Huh-7 cells were pre-plated 24 h in advance in 24-well plates at a density of 10^5 cells. Concentrations of compounds ranging from 50 μM to 0.0001 μM in DMSO were mixed with DENV-2 (MOI 0.01 pfu/cell) and incubated for 1 hour at 37° C. The mixtures were subsequently added to the cells, which were then incubated at 37° C. for 2 h. The virus inoculum was then removed and the cells washed and overlaid with a medium containing 1.2% methylcellulose (Sigma). After further incubation at 37° C. for 72 h cells were fixed and stained with 0.1% crystal violet in 20% ethanol and viral plaques counted. The effective concentration producing 50% reduction in plaque formation (EC50) were determined using Prism software by comparing drug-treated wells with wells treated with medium and DMSO. The selectivity index (SI) was calculated by dividing the CC50 by the EC50 value.

in vitro [3] = conditions: dog
RSV = RSV inhibition assay on Hep-2 cells; type: cell-based, RSV strain A2; conditions: human respiratory syncytial virus
Procedure: Hep-2 cells were pre-plated in a 96-well plate. The following day concentrations of compounds ranging from 50 μM to 0.0001 μM in DMSO were mixed with RSV (MOI 0.005 pfu/cell) and incubated for 1 hour at 37° C. The mixtures were subsequently added to the cells, which were then incubated at 37° C. for 3 h; monolayers were then washed and overlaid with 1.2% methylcellulose medium. 72 hours later cells were fixed and subjected to specific immunostaining using an RSV monoclonal antibody (Ab35958; Abeam, Cambridge, United Kingdom) in order to visualize syncytia. EC50 were calculated by comparing numbers of syncytia in treated and untreated wells. The effective concentration producing 50% reduction in plaque formation (EC50) was determined using Prism software. The selectivity index (SI) was calculated by dividing the CC50 by the EC50 value.

[4] = Cell viability (MTS) assay, MA104 cells; type: cell-based; conditions: African green monkey, conditions of the HRoV assay
Procedure: as §1

HSV-2 Acy R = test: microbe, parasite or virus in culture; type: cell-based, HSV-2 acyclovir resistant; conditions: Human alphaherpesvirus 2, Vero
ZIKAV = test: ZIKA virus plaque reduction assay on Vero cells; type: cell-based, Zika virus (PRVABC59)
Cytotoxicity, XTT test = conditions: human
in vitro [5] = conditions: African green monkey
HSV-2 = test: During infection assay, HSV-2 on Vero cells without preincubation; type: cell-based, Herpes 2 virus (HSV-2); conditions: Human alphaherpesvirus 2; HSV-2, Vero cells, no preincubation of compound and virus; read-out: EC50 in during infection (DI) assay
Procedure: During infection cells were subjected to the same experiment described above for the evaluation of HSV inhibition without the preincubation between compounds and virus.

Compound: O=C1NC(=S)N(CCc2ccccc2)C(=O)/C1=C\c1ccc(-c2ccc(C(=O)O)c(O)c2)[nH]1 [Compound 15b, (Z)-4-(5-((4,6-dioxo-1-phenethyl-2-thioxotetrahydropyrimidin-5(2H)-ylidene)methyl)-1H-pyrrol-2-yl)-2-hydroxybenzoic Acid]
- EC50 (HSV-1): 454 nM
- EC90 (HSV-1): 3.72 µM
- CC50 [1]: 36.3 µM
- lipid oxidation capability ([2]; 37° C. for 2 h, 0.5% linoleic acid containing liposomes, MDA readout): able to oxidize polyunsaturated fatty acids
- oxidation of linoleic acid with tocopherol added ([2]; with 0.05% w/w (±)-α-tocopherol as antioxidant): reduced the oxidation of linoleic acid
- SI selectivity index (H1N1; H1N1, CC50 divided by EC50): >77
- EC50 (H1N1; Influenza A virus, H1N1, MDCK): 1240 nM
- EC90 (H1N1; Influenza A virus, H1N1, MDCK): 3.88 µM
- EC50 (VSV): 144 nM
- EC90 (VSV): 2170 nM
- SI selectivity index (DENV-2; DENV-2, CC50 divided by EC50): 5.6
- EC50 (DENV-2; Dengue virus, DENV2, Huh-7, DENV-2 infected cells): 1400 nM
- CC50 (in vitro [3]): > 300 µM
- EC50 (RSV): 315 nM
- EC90 (RSV): 1510 nM
- CC50 [4]: > 300 µM
- EC50 (HSV-2 Acy R): 83.4 nM
- EC90 (HSV-2 Acy R): 420 nM
- SI selectivity index (ZIKAV; ZIKAV, CC50 divided by EC50): >2563
- EC50 (ZIKAV; Zika virus, Vero, ZIKAV infected cells): 43.3 nM
- CC50 (Cytotoxicity, XTT test): > 20 µM
- CC50 (in vitro [5]; CC50, conditions of the HSV-1 assay): > 300 µM
- CC50 (in vitro [5]; CC50, conditions of the HSV-2 Acy R assay): > 300 µM
- CC50 (in vitro [5]; CC50, conditions of the HSV-2 assay (Table 2)): > 300 µM
- CC50 (in vitro [5]; CC50, conditions of the ZIKAV assay (Table 3)): > 111 µM
- EC50 (HSV-2): 7.89 µM
